Source: PubChem BioAssay (NCI)
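These data come from cells grown in 96-well plates and exposed to compound for 48 hours at five concentrations. The concentration for 50% growth inhibition is given as GI50. TGI: concentration producing complete growth inhibition.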

Key:
Test in all cases: NCI tumour cell line growth inhibition, 48 h
[1] = test system: 786-0 renal
[2] = test system: A498 renal
[3] = test system: A549 NSCLC
[4] = test system: ACHN renal
[5] = test system: BT-549 breast
[6] = test system: CAKI-1 renal
[7] = test system: CCRF-CEM leukemia
[8] = test system: DU-145 prostate
[9] = test system: EKVX NSCLC
[10] = test system: HCC-2998 colon
[11] = test system: HCT-116 colon
[12] = test system: HCT-15 colon
[13] = test system: HL-60(TB) leukemia
[14] = test system: HOP-62 NSCLC
[15] = test system: HOP-92 NSCLC
[16] = test system: HS 578T breast
[17] = test system: HT29 colon
[18] = test system: IGROV1 ovarian
[19] = test system: K-562 leukemia
[20] = test system: KM12 colon
[21] = test system: LOX IMVI melanoma
[22] = test system: M14 melanoma
[23] = test system: MALME-3M melanoma
[24] = test system: MCF7 breast
[25] = test system: MDA-MB-231 breast
[26] = test system: MDA-MB-435
[27] = test system: MOLT-4 leukemia
[28] = test system: NCI-H226 lung
[29] = test system: NCI-H23 lung
[30] = test system: NCI-H460 lung
[31] = test system: NCI-H522 lung
[32] = test system: NCI/ADR-RES ovarian
[33] = test system: OVCAR-4 ovarian
[34] = test system: OVCAR-5 ovarian
[35] = test system: OVCAR-8 ovarian
[36] = test system: PC-3 prostate
[37] = test system: RPMI-8226 leukemia
[38] = test system: RXF 393 renal
[39] = test system: SF-268 CNS
[40] = test system: SF-295 CNS
[41] = test system: SF-539 CNS
[42] = test system: SK-MEL-2 melanoma
[43] = test system: SK-MEL-28 melanoma
[44] = test system: SK-OV-3 ovarian
[45] = test system: SN12C renal
[46] = test system: SNB-19 CNS
[47] = test system: SR leukemia
[48] = test system: SW-620 colon
[49] = test system: T-47D breast
[50] = test system: TK-10 renal
[51] = test system: U251 CNS
[52] = test system: UACC-257 melanoma
[53] = test system: UACC-62 melanoma
[54] = test system: UO-31 renal

## CC(C)(C)c1cc(NC(=O)Nc2ccc(-c3cn4c5c(sc4n3)CCc3cn(CCCN4CCCCC4)cc3-5)cc2)no1
[1]
  GI50: 1760 nM
  TGI: 3210 nM
[2]
  GI50: 1760 nM
  TGI: 3150 nM
[3]
  GI50: 1830 nM
  TGI: 3470 nM
[4]
  GI50: 1790 nM
  TGI: 3210 nM
[5]
  GI50: 1750 nM
  TGI: 3290 nM
[6]
  GI50: 1640 nM
  TGI: 3120 nM
[7]
  GI50: 2010 nM
  TGI: 6440 nM
[8]
  GI50: 1770 nM
  TGI: 3170 nM
[9]
  GI50: 1790 nM
  TGI: 3230 nM
[10]
  GI50: 1910 nM
  TGI: 3770 nM
[11]
  GI50: 1670 nM
  TGI: 3220 nM
[12]
  GI50: 1660 nM
  TGI: 3300 nM
[13]
  GI50: 1880 nM
  TGI: 6270 nM
[14]
  GI50: 1900 nM
  TGI: 3750 nM
[15]
  GI50: 1420 nM
  TGI: 2820 nM
[16]
  GI50: 1820 nM
  TGI: 3850 nM
[17]
  GI50: 1990 nM
  TGI: 3910 nM
[18]
  GI50: 1960 nM
  TGI: 3820 nM
[19]
  GI50: 2570 nM
  TGI: > 100000 nM
[20]
  GI50: 1900 nM
  TGI: 3830 nM
[21]
  GI50: 1800 nM
  TGI: 3300 nM
[22]
  GI50: 1710 nM
  TGI: 3150 nM
[23]
  GI50: 1710 nM
  TGI: 3380 nM
[24]
  GI50: 1750 nM
  TGI: 3810 nM
[25]
  GI50: 1950 nM
  TGI: 3730 nM
[26]
  GI50: 1730 nM
  TGI: 3170 nM
[27]
  GI50: 1930 nM
  TGI: 6830 nM
[28]
  GI50: > 100000 nM
  TGI: > 100000 nM
[29]
  GI50: 1820 nM
  TGI: 3520 nM
[30]
  GI50: 1800 nM
  TGI: 3640 nM
[31]
  GI50: 1890 nM
  TGI: 3740 nM
[32]
  GI50: 2090 nM
  TGI: 4730 nM
[33]
  GI50: 1780 nM
  TGI: 3590 nM
[34]
  GI50: 1750 nM
  TGI: 3180 nM
[35]
  GI50: 2270 nM
  TGI: 5260 nM
[36]
  GI50: 1710 nM
  TGI: 3230 nM
[37]
  GI50: 2360 nM
  TGI: 6280 nM
[38]
  GI50: 1600 nM
  TGI: 3100 nM
[39]
  GI50: 1810 nM
  TGI: 3890 nM
[40]
  GI50: 1730 nM
  TGI: 3250 nM
[41]
  GI50: 1740 nM
  TGI: 3180 nM
[42]
  GI50: > 100000 nM
  TGI: > 100000 nM
[43]
  GI50: 1820 nM
  TGI: 3250 nM
[44]
  GI50: 1720 nM
  TGI: 3280 nM
[45]
  GI50: 1850 nM
  TGI: 3490 nM
[46]
  GI50: 1820 nM
  TGI: 3340 nM
[47]
  GI50: 2130 nM
  TGI: 6770 nM
[48]
  GI50: 1800 nM
  TGI: 3360 nM
[49]
  GI50: 1790 nM
  TGI: 3850 nM
[50]
  GI50: 1820 nM
  TGI: 3270 nM
[51]
  GI50: 1470 nM
  TGI: 2880 nM
[52]
  GI50: 1790 nM
  TGI: 3500 nM
[53]
  GI50: > 100000 nM
  TGI: > 100000 nM
[54]
  GI50: 1600 nM
  TGI: 3000 nM
